According to US6358885B1, “Substituted phenylheterocyclic herbicides” (Mississippi State University, priority 1992, dated 2002):

Key:
lambsquarters = assay: Test C preemergence/postemergence greenhouse plant response rating 0 to 100; assay type: in vivo, Chenopodium album; conditions: POSTEMERGENCE
From the text: (§1) The compounds evaluated in this test were formulated in a non-phytoxic solvent and applied to the soil surface before plant seedlings emerged (preemergence application), to water that covered the soil surface (flood application), and to plants that were in the one-to-four leaf stage (postemergence application). A sandy loam soil was used for the preemergence and postemergence tests, while a silt loam soil was used in the flood test. Water depth was approximately 2.5 cm for the flood test and was maintained at this level for the duration of the test. Plant species in the preemergence and postemergence tests consisted of barley (Hordeum vulgare), bedstraw (Galium aparine), blackgrass (Alopecurus myosuroides), chickweed (Stellaria media), corn (Zea mays), cotton (Gossypium hirsutum), crabgrass (Digitaria sanguinalis), downy brome (Bromus tectorum), giant foxtail (Setaria faberii), lambsquarters (Chenopodium album), morningglory (Ipomoea hederacea), pigweed ([…]), rape (Brassica napus), ryegrass (Lolium multiflorum), sorghum (Sorghum bicolor), soybean (Glycine max), speedwell (Veronica persica), sugar beet (Beta vulgaris), velvetleaf (Abutilon theophrasti), wheat (Triticum aestivum), wild buckwheat (Polygonum convolvulus), and wild oat (Avena fatua). All plant species were planted one day before application of the compound for the preemergence portion-of this test. Plantings of these species were adjusted to produce plants of appropriate size for the post-emergence portion of the test. […] All plant species were grown using normal greenhouse practices. Visual evaluations of injury expressed on treated plants, when compared to untreated controls, were recorded approximately fourteen to twenty one days after application of the test compound. […] A dash (-) response means no test result.

soybean = assay: as above; assay type: in vivo, Glycine max; conditions: POSTEMERGENCE
From the text: as §1

cotton [1] = assay: Test B preemergence/postemergence greenhouse plant response rating 0 to 10; assay type: in vivo, Gossypium hirsutum; conditions: 0 to 10 scale
Procedure, shortened: (§2)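 Postemergence treatment of plants two to eighteen cm tall ran alongside preemergence treatment of planted seed, each using compound in a non-phytotoxic solvent.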

cotton [2] = assay: Test C preemergence/postemergence greenhouse plant response rating 0 to 100; assay type: in vivo, Gossypium hirsutum; conditions: POSTEMERGENCE
From the text: as §1

chickweed = assay: as above; assay type: in vivo, Stellaria media; conditions: POSTEMERGENCE
From the text: as §1

giant foxtail [3] = assay: as above; assay type: in vivo, Setaria faberii; conditions: POSTEMERGENCE
From the text: as §1

barley = assay: as above; assay type: in vivo, Hordeum vulgare; conditions: POSTEMERGENCE
From the text: as §1

rape = assay: Test B preemergence/postemergence greenhouse plant response rating 0 to 10; assay type: in vivo, Brassica napus; conditions: 0 to 10 scale
Procedure, shortened: as §2

morningglory = assay: as above; assay type: in vivo, Ipomoea hederacea; conditions: 0 to 10 scale
Procedure, shortened: as §2

cocklebur = assay: as above; assay type: in vivo, Xanthium pensylvanicum; conditions: 0 to 10 scale
Procedure, shortened: as §2

bedstraw = assay: as above; assay type: in vivo, Galium aparine; conditions: 0 to 10 scale
Procedure, shortened: as §2

pigweed = assay: Test C preemergence/postemergence greenhouse plant response rating 0 to 100; assay type: in vivo, Amaranthusretroflexus; conditions: POSTEMERGENCE
From the text: as §1

giant foxtail [4] = assay: Test B preemergence/postemergence greenhouse plant response rating 0 to 10; assay type: in vivo, Setaria faberii; conditions: 0 to 10 scale
Procedure, shortened: as §2

cheatgrass = assay: as above; assay type: in vivo, Bromus secalinus; conditions: 0 to 10 scale
Procedure, shortened: as §2

velvetleaf = assay: Test C preemergence/postemergence greenhouse plant response rating 0 to 100; assay type: in vivo, Abutilon theophrasti; conditions: POSTEMERGENCE
From the text: as §1

crabgrass = assay: Test B preemergence/postemergence greenhouse plant response rating 0 to 10; assay type: in vivo, Digitaria spp.; conditions: 0 to 10 scale
Procedure, shortened: as §2

`C#CCN1C(=O)COc2cc(F)c(-c3nn4c(c3Br)CCCC4)cc21` [Compound 56] was tested, and the “Plant response rating Lambsquarters” value (lambsquarters; 62 g/ha, 0 to 100 scale) was 100, the “Plant response rating (0 to 100), Lambsquarters” value (lambsquarters; Rate 1 g/ha) was 85 and the “Plant response rating (0 to 100), Lambsquarters” value (lambsquarters; Rate 4 g/ha) was 100. For the same molecule, the “Plant response rating (0 to 100), Lambsquarters” value (lambsquarters; Rate 16 g/ha) was 100, the “Plant response rating, Soybean” value (soybean; 62 g/ha, 0 to 100 scale) was 95 and the “Plant response rating (0 to 100), Soybean” value (soybean; Rate 1 g/ha) was 40. The “Plant response rating (0 to 100), Soybean” value (soybean; Rate 4 g/ha) was 60, the “Plant response rating (0 to 100), Soybean” value (soybean; Rate 16 g/ha) was 90 and the “Plant response rating, Cotton” value (cotton [1]; POSTEMERGENCE, Rate 10 g/ha) was 10. The “Plant response rating, Cotton” value (cotton [1]; POSTEMERGENCE, Rate 50 g/ha) was 10, the “Plant response rating, Cotton” value (cotton [1]; PREEMERGENCE, Rate 10 g/ha) was 0 and the “Plant response rating, Cotton” value (cotton [1]; PREEMERGENCE, Rate 50 g/ha) was 0. The “Plant response rating, Cotton” value (cotton [2]; 62 g/ha, 0 to 100 scale) was 100, the “Plant response rating (0 to 100), Cotton” value (cotton [2]; Rate 1 g/ha) was 100 and the “Plant response rating (0 to 100), Cotton” value (cotton [2]; Rate 4 g/ha) was 100. The “Plant response rating (0 to 100), Cotton” value (cotton [2]; Rate 16 g/ha) was 100, the “Plant response rating, Chickweed” value (chickweed; 62 g/ha, 0 to 100 scale) was 100 and the “Plant response rating (0 to 100), Chickweed” value (chickweed; Rate 1 g/ha) was 65. For the same molecule, the “Plant response rating (0 to 100), Chickweed” value (chickweed; Rate 4 g/ha) was 80, the “Plant response rating (0 to 100), Chickweed” value (chickweed; Rate 16 g/ha) was 100 and the “Plant response rating, Giant foxtail” value (giant foxtail [3]; 62 g/ha, 0 to 100 scale) was 40. The “Plant response rating (0 to 100), Giant foxtail” value (giant foxtail [3]; Rate 1 g/ha) was 10, the “Plant response rating (0 to 100), Giant foxtail” value (giant foxtail [3]; Rate 4 g/ha) was 10 and the “Plant response rating (0 to 100), Giant foxtail” value (giant foxtail [3]; Rate 16 g/ha) was 30. The “Plant response rating Barley Igri” value (barley; 62 g/ha, 0 to 100 scale) was 50, the “Plant response rating (0 to 100), Barley Igri” value (barley; Rate 1 g/ha) was 30 and the “Plant response rating (0 to 100), Barley Igri” value (barley; Rate 4 g/ha) was 30. The “Plant response rating (0 to 100), Barley Igri” value (barley; Rate 16 g/ha) was 50, the “Plant response rating, Rape” value (rape; POSTEMERGENCE, Rate 10 g/ha) was 10 and the “Plant response rating, Rape” value (rape; POSTEMERGENCE, Rate 50 g/ha) was 10. For the same molecule, the “Plant response rating, Rape” value (rape; PREEMERGENCE, Rate 50 g/ha) was 3, the “Plant response rating, Morningglory” value (morningglory; POSTEMERGENCE, Rate 10 g/ha) was 10 and the “Plant response rating, Morningglory” value (morningglory; POSTEMERGENCE, Rate 50 g/ha) was 9. For the same molecule, the “Plant response rating, Morningglory” value (morningglory; PREEMERGENCE, Rate 50 g/ha) was 6, the “Plant response rating, Cocklebur” value (cocklebur; POSTEMERGENCE, Rate 10 g/ha) was 10 and the “Plant response rating, Cocklebur” value (cocklebur; POSTEMERGENCE, Rate 50 g/ha) was 10. For the same molecule, the “Plant response rating, Cocklebur” value (cocklebur; PREEMERGENCE, Rate 10 g/ha) was 2, the “Plant response rating, Cocklebur” value (cocklebur; PREEMERGENCE, Rate 50 g/ha) was 2 and the “Plant response rating, Bedstraw” value (bedstraw; POSTEMERGENCE, Rate 10 g/ha) was 8. For the same molecule, the “Plant response rating, Bedstraw” value (bedstraw; POSTEMERGENCE, Rate 50 g/ha) was 10, the “Plant response rating, Bedstraw” value (bedstraw; PREEMERGENCE, Rate 10 g/ha) was 4 and the “Plant response rating, Bedstraw” value (bedstraw; PREEMERGENCE, Rate 50 g/ha) was 9. The “Plant response rating Pigweed” value (pigweed; 62 g/ha, 0 to 100 scale) was 100, the “Plant response rating (0 to 100), Pigweed” value (pigweed; Rate 1 g/ha) was 100 and the “Plant response rating (0 to 100), Pigweed” value (pigweed; Rate 4 g/ha) was 100. The “Plant response rating (0 to 100), Pigweed” value (pigweed; Rate 16 g/ha) was 100, the “Plant response rating, Giant foxtail” value (giant foxtail [4]; POSTEMERGENCE, Rate 10 g/ha) was 4 and the “Plant response rating, Giant foxtail” value (giant foxtail [4]; POSTEMERGENCE, Rate 50 g/ha) was 6. For the same molecule, the “Plant response rating, Giant foxtail” value (giant foxtail [4]; PREEMERGENCE, Rate 10 g/ha) was 0, the “Plant response rating, Giant foxtail” value (giant foxtail [4]; PREEMERGENCE, Rate 50 g/ha) was 0 and the “Plant response rating, Cheatgrass” value (cheatgrass; POSTEMERGENCE, Rate 10 g/ha) was 5. The “Plant response rating, Cheatgrass” value (cheatgrass; POSTEMERGENCE, Rate 50 g/ha) was 6, the “Plant response rating, Cheatgrass” value (cheatgrass; PREEMERGENCE, Rate 10 g/ha) was 5 and the “Plant response rating, Cheatgrass” value (cheatgrass; PREEMERGENCE, Rate 50 g/ha) was 5. For the same molecule, the “Plant response rating, Velvetleaf” value (velvetleaf; 62 g/ha, 0 to 100 scale) was 100, the “Plant response rating (0 to 100), Velvetleaf” value (velvetleaf; Rate 1 g/ha) was 100 and the “Plant response rating (0 to 100), Velvetleaf” value (velvetleaf; Rate 4 g/ha) was 100. For the same molecule, the “Plant response rating (0 to 100), Velvetleaf” value (velvetleaf; Rate 16 g/ha) was 100, the “Plant response rating, Crabgrass” value (crabgrass; POSTEMERGENCE, Rate 10 g/ha) was 4 and the “Plant response rating, Crabgrass” value (crabgrass; POSTEMERGENCE, Rate 50 g/ha) was 6. For the same molecule, the “Plant response rating, Crabgrass” value (crabgrass; PREEMERGENCE, Rate 10 g/ha) was 0 and the “Plant response rating, Crabgrass” value (crabgrass; PREEMERGENCE, Rate 50 g/ha) was 3.
